# Source: patent US7384931B2, “Constrained compounds as CGRP-receptor antagonists” (Bristol-Myers Squibb Company, priority 2004, dated 2008)
# pIC50: −log10 of the molar value. Counter-ions that a name gives are not always drawn.
# Biological target: CGRP receptor (Homo sapiens, UniProt O60894+Q16602)
# Assay: CGRP radioligand binding assay ([125I]-CGRP displacement, SK-N-MC homogenate)
# Design: endogenous in cells; host or cells: SK-N-MC cells (homogenate/membrane pellet)
# Conditions: displacement of [125I]-CGRP, room temperature 2 h
# Protocol: CGRP Binding Assay. Tissue Culture. SK—N-MC cells were grown at 37° C. in 5% CO2 as a monolayer in medium consisting of MEM with Earle's salts and L-glutamine (Gibco) supplemented with 10% fetal bovine serum (Gibco). Cell Pellets. The cells were rinsed twice with phosphate-buffered saline (155 mM NaCl, 3.3 mM Na2HPO4, 1.1 mM KH2PO4, pH 7.4), and incubated for 5-10 min. at 4° C. in hypotonic lysis buffer consisting of 10 mM Tris (pH 7.4) and 5 mM EDTA. The cells were transferred from plates to polypropylene tubes (16×100 mm) and homogenized using a polytron. Homogenates were centrifuged at 32,000×g for 30 min. The pellets were resuspended in cold hypotonic lysis buffer with 0.1% mammalian protease inhibitor cocktail (Sigma) and assayed for protein concentration. The SK—N-MC homogenate was then aliquoted and stored at −80° C. until needed.
# Radioligand Binding Assay. The compounds of invention were solubilized and carried through serial dilutions using 100% DMSO. Aliquots from the compound serial dilutions were further diluted 25 fold into assay buffer (50 mM Tris-Cl pH 7.5, 5 mM MgCl2, 0.005% Triton X-100) and transferred (volume 50 μl) into 96 well assay plates. [^125I]-CGRP (Amersham Biosciences) was diluted to 60 pM in assay buffer and a volume of 50 μl was added to each well. SK—N-MC pellets were thawed, diluted in assay buffer with fresh 0.1% mammalian protease inhibitor cocktail (Sigma), and homogenized again. SK—N-MC homogenate (5 μg/well) was added in a volume of 100 μl. The assay plates were then incubated at room temperature for 2 h. Assays were stopped by addition of excess cold wash buffer (20 mM Tris-Cl pH 7.5, 0.1% BSA) immediately followed by filtration over glass fiber filters (Whatman GF/B) previously soaked in 0.5% PEI. Non-specific binding was defined with 1 μM beta-CGRP. Protein bound radioactivity was determined using a gamma or scintillation counter. The IC50 was defined as the concentration of a compound of invention required to displace 50% of radioligand binding.
# Chain of CGRP receptor (Q16602 23-461): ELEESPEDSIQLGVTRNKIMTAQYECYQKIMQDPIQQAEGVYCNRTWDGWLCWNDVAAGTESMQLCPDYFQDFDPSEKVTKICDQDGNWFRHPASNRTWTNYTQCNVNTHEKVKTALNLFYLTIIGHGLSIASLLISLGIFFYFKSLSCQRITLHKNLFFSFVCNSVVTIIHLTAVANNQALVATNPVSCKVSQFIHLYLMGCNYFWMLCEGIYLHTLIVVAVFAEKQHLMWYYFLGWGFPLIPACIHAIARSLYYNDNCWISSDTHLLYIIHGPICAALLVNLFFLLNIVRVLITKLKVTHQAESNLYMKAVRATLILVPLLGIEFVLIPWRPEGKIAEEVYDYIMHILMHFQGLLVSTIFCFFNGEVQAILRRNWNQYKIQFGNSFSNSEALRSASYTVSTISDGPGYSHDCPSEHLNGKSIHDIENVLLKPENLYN
# Chain of CGRP receptor (O60894 27-148): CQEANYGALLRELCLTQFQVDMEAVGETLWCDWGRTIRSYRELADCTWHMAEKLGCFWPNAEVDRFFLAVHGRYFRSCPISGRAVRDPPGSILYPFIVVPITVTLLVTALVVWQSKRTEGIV
row,pIC50,Compound
1,< 6.00,"CN1Cc2c(cc(Cl)c(O)c2Cl)CC(NC(=O)N2CCC(N3Cc4ccccc4NC3=O)CC2)C1=O (stereo not drawn) [Example 33, 4-(2-Oxo-1,4-dihydro-2H-quinazolin-3-yl)-piperidine-1-carboxylic acid (7,9-dichloro-8-hydroxy-2-methyl-3-oxo-2,3,4,5-tetrahydro-1H-benzo[c]azepin-4-yl)-amide]"
2,6.00 to 7.00,"CN1Cc2c(cc(Br)c(O)c2Br)CC(NC(=O)N2CCC(N3Cc4ccccc4NC3=O)CC2)C1=O (stereo not drawn) [Example 34, 4-(2-Oxo-1,4-dihydro-2H-quinazolin-3-yl)-piperidine-1-carboxylic acid (7,9-dibromo-8-hydroxy-2-methyl-3-oxo-2,3,4,5-tetrahydro-1H-benzo[c]azepin-4-yl)-amide]"
3,7.00 to 8.00,"O=C(C[C@@H]1Cc2cc(Cl)c3[nH]ncc3c2CN(Cc2ccncc2)C1=O)N1CCC(c2cc(-c3ccccc3)[nH]n2)CC1 [Example 35, (S)-4-Chloro-7-(2-oxo-2-(4-(5-phenyl-1H-pyrazol-3-yl)piperidin-1-yl)ethyl)-9-(pyridin-4-ylmethyl)-6,7,9,10-tetrahydroazepino[3,4-e]indazol-8(3H)-one]"
4,6.00 to 7.00,"O=C(C[C@@H]1Cc2ccc3[nH]ncc3c2CN(Cc2ccccc2)C1=O)N1CCC(N2Cc3ccccc3NC2=O)CC1 [Example 38, (S)-9-Benzyl-7-(2-oxo-2-(4-(2-oxo-1,2-dihydroquinazolin-3(4H)-yl)piperidin-1-yl)ethyl)-6,7,9,10-tetrahydroazepino[3,4-e]indazol-8(3H)-one]"
5,7.00 to 8.00,"CC(C)(C)CN1Cc2c(cc(Cl)c3[nH]ncc23)C[C@@H](CC(=O)N2CCC(c3nc4ccccc4[nH]c3=O)CC2)C1=O [Example 48, (S)-4-Chloro-9-neopentyl-7-(2-oxo-2-(4-(3-oxo-3,4-dihydroquinoxalin-2-yl)piperidin-1-yl)ethyl)-6,7,9,10-tetrahydroazepino[3,4-e]indazol-8(3H)-one]"
6,8.00 to 10.00,"O=C(C[C@@H]1Cc2cc(Cl)c3[nH]ncc3c2CN(Cc2ccncc2)C1=O)N1CCC(c2cc3cccc(F)c3[nH]c2=O)CC1 [Example 51, (S)-4-Chloro-7-(2-(4-(8-fluoro-2-oxo-1,2-dihydroquinolin-3-yl)piperidin-1-yl)-2-oxoethyl)-9-(pyridin-4-ylmethyl)-6,7,9,10-tetrahydroazepino[3,4-e]indazol-8(3H)-one]"
7,6.00 to 7.00,"Cc1cc2c(cc1N)CN(Cc1ccccc1)C(=O)[C@H](NC(=O)N1CCC(N3Cc4ccccc4NC3=O)CC1)C2 [Example 55, (R)-N-(8-Amino-2-benzyl-7-methyl-3-oxo-2,3,4,5-tetrahydro-1H-benzo[c]azepin-4-yl)-4-(2-oxo-1,2-dihydroquinazolin-3(4H)-yl)piperidine-1-carboxamide trifluoroacetate]"
8,6.00 to 7.00,"Cc1c(N)ccc2c1CN(Cc1ccccc1)C(=O)[C@H](NC(=O)N1CCC(N3Cc4ccccc4NC3=O)CC1)C2 [Example 56, trifluoroacetate]"
9,6.00 to 7.00,"O=C(N[C@@H]1Cc2ccc3[nH]ncc3c2CN(C2CCNC2)C1=O)N1CCC(N2Cc3ccccc3NC2=O)CC1 (stereo partly drawn) [Example 63, 4-(2-oxo-1,2-dihydroquinazolin-3(4H)-yl)-N-((R)-8-oxo-9-(pyrrolidin-3-yl)-3,6,7,8,9,10-hexahydroazepino[3,4-e]indazol-7-yl)piperidine-1-carboxamide]"
10,< 6.00,"CC(C)(C)CN1Cc2c(ccc3[nH]ncc23)C[C@@H](CCN2CCC(N3Cc4ccccc4NC3=O)CC2)C1=O [Example 64, (S)-9-neopentyl-7-(2-(4-(2-oxo-1,2-dihydroquinazolin-3(4H)-yl)piperidin-1-yl)ethyl)-6,7,9,10-tetrahydroazepino[3,4-e]indazol-8(3H)-one]"
11,< 6.00,"CC(C)(C)CN1Cc2c(ccc3[nH]ncc23)C[C@@H](NC(=O)N2CCC(c3cc(-c4ccccc4)no3)CC2)C1=O [Example 65, (R)-N-(9-neopentyl-8-oxo-3,6,7,8,9,10-hexahydroazepino[3,4-e]indazol-7-yl)-4-(3-phenylisoxazol-5-yl)piperidine-1-carboxamide]"
12,7.00 to 8.00,"CC(C)(C)CN1Cc2c(ccc3[nH]ncc23)C[C@H](CC(=O)N2CCC(N3Cc4ccccc4NC3=O)CC2)C1=O [Example 66, 9-(2,2-dimethyl-propyl)-7-(R)-{2-oxo-2-[4-(2-oxo-1,4-dihydro-2H-quinazolin-3-yl)-piperidin-1-yl]-ethyl}-6,7,9,10-tetrahydro-3H-2,3,9-triaza-cyclohepta[e]inden-8-one]"
13,7.00 to 8.00,"CC(C)(C)CN1Cc2c(ccc3[nH]ncc23)C[C@@H](NC(=O)N2CCC(C3Cc4ccccc4NC3=O)CC2)C1=O (stereo partly drawn) [Example 67, N-((R)-9-neopentyl-8-oxo-3,6,7,8,9,10-hexahydroazepino[3,4-e]indazol-7-yl)-4-(2-oxo-1,2,3,4-tetrahydroquinolin-3-yl)piperidine-1-carboxamide]"
14,6.00 to 7.00,"CC(C)(C)CN1Cc2c(ccc3[nH]ncc23)C[C@@H](NC(=O)N2CCN(C3Cc4ccccc4NC3=O)CC2)C1=O (stereo partly drawn) [Example 68, N-((R)-9-Neopentyl-8-oxo-3,6,7,8,9,10-hexahydroazepino[3,4-e]indazol-7-yl)-4-(2-oxo-1,2,3,4-tetrahydroquinolin-3-yl)piperazine-1-carboxamide]"
15,7.00 to 8.00,"CC(C)(C)CN1Cc2c(ccc3[nH]ncc23)C[C@@H](NC(=O)N2CCC(N3Cc4ccccc4CC3=O)CC2)C1=O [Example 69, (R)-N-(9-Neopentyl-8-oxo-3,6,7,8,9,10-hexahydroazepino[3,4-e]indazol-7-yl)-4-(3-oxo-3,4-dihydroisoquinolin-2(1H)-yl)piperidine-1-carboxamide]"
16,6.00 to 7.00,"CC(C)(C)CN1Cc2c(ccc3[nH]ncc23)C[C@@H](CC(=O)N2CCC3(CC2)NC(=O)Nc2ccccc23)C1=O [Example 71, 1-[[7-(S)-9-(2,2-Dimethylpropyl)-3,6,7,8,9,10-hexahydro-8-oxoazepino[3,4-e]indazol-7-yl]acetyl]-spiro[piperidine-4,4′(1′H)-quinazolin]-2′(3′H)-one]"
17,< 6.00,"CC(C)(C)CN1Cc2c(ccc3[nH]ncc23)C[C@@H](CC(=O)N2CCC(c3cnc4ccccc4c3)CC2)C1=O [Example 72, 1-[[7-(S)-9-(2,2-Dimethylpropyl)-3,6,7,8,9,10-hexahydro-8-oxoazepino[3,4-e]indazol-7-yl]acetyl]-4-(3-quinolinyl)piperidine]"
18,< 6.00,"COc1cc2ccccc2cc1C1CCN(C(=O)C[C@@H]2Cc3cc(Cl)c4[nH]ncc4c3CN(CC(C)(C)C)C2=O)CC1 [Example 73, 1-[[7-(S)-4-choro-9-(2,2-Dimethylpropyl)-3,6,7,8,9,10-hexahydro-8-oxoazepino[3,4-e]indazol-7-yl]acetyl]-4-(3-methoxy-2-naphthalenyl)piperidine]"
19,< 6.00,"CC(C)(C)CN1Cc2c(cc(Cl)c3[nH]ncc23)C[C@@H](CC(=O)N2CCC(c3cc4ccccc4cc3O)CC2)C1=O [Example 74, 1-[[7-(S)-4-choro-9-(2,2-Dimethylpropyl)-3,6,7,8,9,10-hexahydro-8-oxoazepino[3,4-e]indazol-7-yl]acetyl]-4-(3-hydroxy-2-naphthalenyl)piperidine]"
20,8.00 to 10.00,"O=C(C[C@@H]1Cc2cc(Cl)c3[nH]ncc3c2CN(CC(F)(F)F)C1=O)N1CCC(N2Cc3ccccc3NC2=O)CC1 [Example 75, 1-[[(7S)-4-Chloro-3,6,7,8,9,10-hexahydro-8-oxo-9-(2,2,2-trifluoroethly)azepino[3,4-e]indazol-7-yl]acetyl]-4-(1,4-dihydro-2-oxo-3(2H)-quinazolinyl)-piperidine]"
21,7.00 to 8.00,"CC(C)(C)CN1Cc2c(cc(Cl)c3[nH]ncc23)C[C@@H](CC(=O)N2CCC(C3C(=O)c4ccccc4NS3(=O)=O)CC2)C1=O (stereo partly drawn) [Example 76, 1-[[7-(S)-4-choro-9-(2,2-Dimethylpropyl)-3,6,7,8,9,10-hexahydro-8-oxoazepino[3,4-e]indazol-7-yl]acetyl]-4-(3,4-dihydro-2,2-dioxido-4-oxo-1H-2,1-benzothiazin-3-yl)piperidine]"
22,8.00 to 10.00,CC(C)(C)CN1Cc2c(cc(Cl)c3[nH]ncc23)C[C@@H](CC(=O)N2CCC(N3Cc4cccnc4NC3=O)CC2)C1=O [Example 78]
23,8.00 to 10.00,"CC(C)(C)CN1Cc2c(cc(Cl)c3[nH]ncc23)C[C@@H](CC(=O)N2CCC(c3cc4cccnc4[nH]c3=O)CC2)C1=O [Example 79, 1-[[(7S)-4-chloro-9-(2,2-dimethylpropyl)-3,6,7,8,9,10-hexahydro-8-oxoazepino[3,4-e]indazol-7-yl]acetyl]-4-(1,2-dihydro-2-oxo-1,8-naphthyridin-3-yl)-piperidine]"
24,8.00 to 10.00,O=C(C[C@@H]1Cc2cc(Cl)c3[nH]ncc3c2CN(Cc2ccncc2)C1=O)N1CCC(c2cc3ccccc3c[n+]2[O-])CC1 [Example 82]
